Experimental data: ChEMBL document CHEMBL1201862, “PubChem BioAssay data set” (2004)
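Tested at 5 concentrations; 48 h exposure; 96-well plates; endpoints linearly interpolated, else capped at highest concentration. Abbreviation: GI50, concentration required for 50% inhibition of growth.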 Activity calls are given as the source filed them. Cut-off read from the data, not from the text of the source: active = GI50 up to about 1.1 µM and inactive = higher.

Tests used:
Assay in all cases: NCI anticancer screen, dose series, 48 h
RXF 393 = test system: RXF 393
SK-OV-3 = test system: SK-OV-3
NCI-H460 = test system: NCI-H460
UACC-62 = test system: UACC-62
HOP-92 = test system: HOP-92
EKVX = test system: EKVX
K562 = test system: K562
ACHN = test system: ACHN
TK-10 = test system: TK-10
SK-MEL-2 = test system: SK-MEL-2
NCI/ADR-RES = test system: NCI/ADR-RES
HT-29 = test system: HT-29
OVCAR-5 = test system: OVCAR-5
PC-3 = test system: PC-3
U-251 = test system: U-251
Malme-3M = test system: Malme-3M
SF-268 = test system: SF-268
SF-295 = test system: SF-295
SW-620 = test system: SW-620

Measured: GI50

c1ccc(-c2nnc(-c3ccccn3)c3c2C[C@@H]2C[C@@H]4Cc5c(-c6ccccn6)nnc(-c6ccccn6)c5[C@@H]4[C@H]32)nc1
inactive: RXF 393 > 100 µM | SK-OV-3 > 100 µM | NCI-H460 27.5 µM | UACC-62 41.7 µM | HOP-92 60.4 µM | EKVX 18 µM | K562 18.3 µM | ACHN 24.9 µM | TK-10 > 100 µM | SK-MEL-2 51.1 µM | NCI/ADR-RES 32.7 µM | HT-29 44.9 µM | OVCAR-5 61 µM | PC-3 41.5 µM | U-251 22.2 µM | Malme-3M 75.7 µM | SF-268 35 µM | SF-295 58.9 µM | SW-620 63.1 µM

COc1ccc([C@H]2CC(=O)C[C@H](c3ccc(OC)cc3OC)C23C(=O)c2ccccc2C3=O)c(OC)c1
inactive: RXF 393 > 100 µM | SK-OV-3 > 100 µM | NCI-H460 > 100 µM | UACC-62 > 100 µM | HOP-92 27.3 µM | EKVX > 100 µM | K562 > 100 µM | ACHN > 100 µM | TK-10 > 100 µM | SK-MEL-2 > 100 µM | NCI/ADR-RES > 100 µM | HT-29 > 100 µM | OVCAR-5 > 100 µM | PC-3 > 100 µM | U-251 > 100 µM | Malme-3M > 100 µM | SF-268 > 100 µM | SF-295 > 100 µM | SW-620 > 100 µM

Cc1ccc(-n2c(=O)c3nn4c(=O)n(-c5ccc(C)cc5)c(=O)c4nn3c2=O)cc1
inactive: RXF 393 > 100 µM | SK-OV-3 > 100 µM | NCI-H460 > 100 µM | UACC-62 > 100 µM | HOP-92 45.6 µM | EKVX > 100 µM | K562 > 100 µM | ACHN > 100 µM | TK-10 > 100 µM | SK-MEL-2 > 100 µM | NCI/ADR-RES > 100 µM | HT-29 > 100 µM | OVCAR-5 > 100 µM | PC-3 > 100 µM | U-251 > 100 µM | Malme-3M > 100 µM | SF-268 > 100 µM | SF-295 > 100 µM | SW-620 > 100 µM

Cc1ccc(S(=O)(=O)n2cc(-c3cc(C(F)(F)F)ccn3)c3cc(Br)ccc32)cc1
inactive: RXF 393 17.8 µM | SK-OV-3 15.5 µM | NCI-H460 36.5 µM | UACC-62 16.1 µM | HOP-92 13.7 µM | EKVX 29.6 µM | K562 > 100 µM | ACHN 11.4 µM | TK-10 18.7 µM | SK-MEL-2 3.07 µM | NCI/ADR-RES 34.2 µM | HT-29 49.1 µM | OVCAR-5 50 µM | PC-3 18.2 µM | U-251 15.5 µM | Malme-3M 20.7 µM | SF-268 27.4 µM | SF-295 17.9 µM | SW-620 74.6 µM
